# Patent US10624877B2, “Composition and method for treatment of symptoms associated with various skin conditions” (priority 2011, dated 2020)
# Tests used:
# [1] = chronic studies; cited from earlier work
# skin [2] = conditions: human exposure studies and clinical experience; cited from earlier work
# [3] = subchronic oral, high doses; cited from earlier work
# [4] = dermal laboratory studies; cited from earlier work
# skin [5] = conditions: clinical studies; cited from earlier work
# [6] = in vivo; cited from earlier work
# [7] = in vivo; cited from earlier work; remark: listed apart in the source
# eye = conditions: in vivo; cited from earlier work
# [8] = Examination of 1.0% THI cream on a mixing plate; assay type: physicochemical; conditions: 100 mg THI in 10 g base cream (1.0%)
# Method: A topical formulation containing 100 mg of THI in 10 g of base cream was prepared as follows. […] A smooth cream was obtained by levigation in a marble mortar and pestle. A dime-sized portion of the […] material was then incorporate geometrically with similar-sized portions of base and mixed thoroughly. […] Application of the finished cream to the skin left no residue.
# S1P lyase = biological target: T1, S1P lyase (Mus musculus, UniProt Q8R0X7); conditions: when administered to mice; cited from earlier work
# T1 sequence (Q8R0X7 1-568): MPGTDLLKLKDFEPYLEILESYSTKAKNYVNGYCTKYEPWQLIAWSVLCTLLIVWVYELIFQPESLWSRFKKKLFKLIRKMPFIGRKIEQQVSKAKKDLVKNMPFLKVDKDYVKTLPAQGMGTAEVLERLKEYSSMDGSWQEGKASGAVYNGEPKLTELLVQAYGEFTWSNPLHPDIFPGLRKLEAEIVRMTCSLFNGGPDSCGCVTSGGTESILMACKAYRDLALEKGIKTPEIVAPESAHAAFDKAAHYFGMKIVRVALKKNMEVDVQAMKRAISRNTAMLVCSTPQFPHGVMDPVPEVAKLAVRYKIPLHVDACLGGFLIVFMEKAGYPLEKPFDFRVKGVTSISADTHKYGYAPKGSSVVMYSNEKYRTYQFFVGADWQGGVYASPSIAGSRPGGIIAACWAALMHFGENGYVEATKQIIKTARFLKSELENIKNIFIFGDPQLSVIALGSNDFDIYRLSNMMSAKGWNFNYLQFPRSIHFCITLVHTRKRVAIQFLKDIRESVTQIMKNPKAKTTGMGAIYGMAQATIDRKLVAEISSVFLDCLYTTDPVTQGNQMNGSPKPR
# rats = conditions: administration to rats; cited from earlier work
# mice = conditions: administration to mice; cited from earlier work
# humans = conditions: studies in humans; cited from earlier work
# skin [9] = conditions: cited from earlier work
# [10] = laboratory study; cited from earlier work
# [11] = concentrations higher than in products; attributed to formaldehyde release; cited from earlier work
# skin [12] = conditions: clinical studies; could be related to formaldehyde release; cited from earlier work
molecule,measurement,setting,value
"CCCCCCCCCCCCCCCCCC(=O)OCC(O)CO (stereo not shown) [glyceryl stearate, Glyceryl stearate]",carcinogenic effects,[1],no carcinogenic effects
same,effects on reproduction,[1],no adverse effects on reproduction
same,"sensitization, phototoxicity, photosensitization",skin [2],"non-sensitizing, non-phototoxic and non-photosensitizing"
"OCCOc1ccccc1 [phenoxyethanol, 2-Phenoxyethanol]",organ weights,[3],increased weights of some organs
same,birth defects,[4],did not cause any birth defects
same,delayed hypersensitivity,skin [5],did not cause delayed hypersensitivity
same,phototoxicity,skin [5],nonphototoxic
same,primary and cumulative irritation,skin [5],neither a primary nor a cumulative irritant
same,toxicity via oral and dermal administration,[6],practically nontoxic
PEG-100 stearate,"changes in growth, histopathologic observations or hematologic values",[7],no significant changes
Carbomer,eye irritation,eye,no to moderate eye irritation
"CC(=O)c1nc(C(O)C(O)C(O)CO)c[nH]1 (stereo not shown) [THI, 2-acetyl-4-tetrahydroxybutylimidazole]",dissolution of THI in the cream base,[8],at least partially dissolving in the cream base
same,S1P lyase activity,S1P lyase,inhibits S1P lyase activity
same,accumulation of mature T cells in the thymus,rats,causes the accumulation of mature T cells in the thymus
same,lymphopenia,rats,induces lymphopenia
same,accumulation of mature T cells in the thymus,mice,causes the accumulation of mature T cells in the thymus
same,lymphopenia,mice,induces lymphopenia
same,immunological effects in humans,humans,no immunological effects
"CC1(C)C(=O)N(CO)C(=O)N1CO [DMDM hydantoin, 1,3-Bis(hydroxymethyl)-5,5-dimethylimidazolidine-2,4-dione]",absorption from the skin,skin [9],poorly absorbed from the skin
same,adverse effects of oral exposure,[10],did not result in any adverse effects
same,in vitro mutagenicity,[11],positive results in some in vitro mutagenicity studies
same,skin irritation,skin [12],some observations of skin irritation
